Here are results for 28 compounds from patent publication US10160753B2, “Indazole compounds as IRAK4 inhibitors” (Aurigene Discovery Technologies Limited, priority 2014, dated 2018).

This experiment concerns the target T1, recombinant IRAK-4 kinase (Homo sapiens, UniProt Q9NWZ3).
T1 construct: purchased Millipore, USA
T1 sequence (Q9NWZ3 1-460): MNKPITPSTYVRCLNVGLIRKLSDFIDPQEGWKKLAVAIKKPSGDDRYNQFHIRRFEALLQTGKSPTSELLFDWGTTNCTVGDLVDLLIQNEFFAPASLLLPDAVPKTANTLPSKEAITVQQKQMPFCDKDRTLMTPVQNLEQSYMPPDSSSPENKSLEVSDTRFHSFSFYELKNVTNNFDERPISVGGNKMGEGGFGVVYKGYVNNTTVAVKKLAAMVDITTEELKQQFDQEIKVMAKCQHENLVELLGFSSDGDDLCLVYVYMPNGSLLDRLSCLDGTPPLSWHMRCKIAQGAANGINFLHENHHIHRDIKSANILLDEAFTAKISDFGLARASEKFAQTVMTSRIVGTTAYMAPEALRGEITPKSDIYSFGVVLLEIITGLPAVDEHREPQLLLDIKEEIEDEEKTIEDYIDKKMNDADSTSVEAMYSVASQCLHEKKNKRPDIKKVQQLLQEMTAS
The experiment can be described thus: IRAK-4 Biochemical Assay (TR-FRET). The settings on record: 30 min pre-incubation, 100 nM Biotin Histone H3, 20 μM ATP, read-out: IC50 values for IRAK4 activity. The protocol:
Compounds were tested for their potential to inhibit IRAK-4 enzyme in a TR-FRET assay using recombinant IRAK-4 kinase from Millipore, USA. The assay buffer was 50 mM Tris-HCl pH 7.5, 20 mM MgCl2, 1 mM EGTA, 2 mM DTT, 3 mM MnCl2 and 0.01% Tween 20.5 ng of IRAK-4 kinase was used for the assay. After pre-incubation of enzyme with test compound for 30 minutes at room temperature, a substrate mixture containing 100 nM Biotin Histone H3 (Millipore, USA) and 20 μM ATP (Sigma, USA) was added and the reaction was incubated for 30 min. Post incubation, the reaction was stopped by the addition of stop mix containing 40 mM EDTA, 1 nM of Europium-Anti-Phospho-Histone H3 (Ser10) antibody (Perkin Elmer, USA) and 20 nM SureLight Allophycocyanin-Streptavidin (Perkin Elmer, USA). The fluorescence emission at 615 nm and 665 nm were measured at an excitation of 340 nm and the percent inhibition was estimated from the ratio of the fluorescence intensities [(F665/F615)×10000]. The compounds were initially screened at 1 μM and 10 μM concentrations and potent compounds (>50% inhibition at 1 μM) were taken for dose response studies. The IC50 values were estimated by fitting the dose-response data to sigmoidal dose response (variable slope), curve fitting program using Graphpad Prism software Version 6.01.
A general note: Time-resolved FRET reads energy transfer from a long-lived donor to a nearby acceptor.

Structures are written as SMILES. Counter-ions that a name gives are not always drawn.

Broadly, the IC50 is the concentration that inhibits the measured activity by half. Take `Cn1cc(-c2cccc(C(=O)Nc3cc4cn(C5CCCC5)nc4cc3C3CC3)n2)cn1` [Example 18, N-(2-cyclopentyl-6-cyclopropyl-2H-indazol-5-yl)-6-(1-methyl-1H-pyrazol-4-yl)picolinamide]: the IC50 is under 50 nM. As for `CC(=O)Nc1cc(-c2nc(C(=O)Nc3cc4cn(C)nc4cc3N3CCCC(F)C3)co2)ccn1` (stereo not shown) [Example 85, 2-(2-acetamidopyridin-4-yl)-N-(6-(3-fluoropiperidin-1-yl)-2-methyl-2H-indazol-5-yl)oxazole-4-carboxamide], the IC50 was under 50 nM. As to `Cc1cc(-c2nc(C(=O)Nc3cc4cn(C)nc4cc3N3CCC3)co2)ccn1` [Example 60, N-(6-(azetidin-1-yl)-2-methyl-2H-indazol-5-yl)-2-(2-methylpyridin-4-yl)oxazole-4-carboxamide], the IC50 is under 50 nM.

Turning to `Cc1cc(-c2ccc(C(=O)Nc3cc4cn(C)nc4cc3N3CCC(O)CC3)o2)ccn1` [Example 67, N-(6-(4-hydroxypiperidin-1-yl)-2-methyl-2H-indazol-5-yl)-5-(2-methylpyridin-4-yl)furan-2-carboxamide], the IC50 is under 50 nM.

As to `Cc1cc(-c2nc(C(=O)Nc3cc4cn(C)nc4cc3N3CCCC3)co2)ccn1` [Example 63, N-(2-methyl-6-(pyrrolidin-1-yl)-2H-indazol-5-yl)-2-(2-methylpyridin-4-yl)oxazole-4-carboxamide], the IC50 was under 50 nM. Take `Cc1cc(-c2ccc(C(=O)Nc3cc4cn(C)nc4cc3N3CCC[C@@H](O)C3)o2)ccn1` [Example 69, (R)—N-(6-(3-hydroxypiperidin-1-yl)-2-methyl-2H-indazol-5-yl)-5-(2-methylpyridin-4-yl)furan-2-carboxamide]: the IC50 is under 50 nM.

In the case of `Cn1cc2cc(NC(=O)c3cccc(Br)n3)c(N3CCCCC3)cc2n1` [Example 23, 6-bromo-N-(2-methyl-6-(piperidin-1-yl)-2H-indazol-5-yl)picolinamide], the half-maximal inhibitory concentration (IC50) was under 50 nM.

Regarding `Cc1cc(-c2nc(C(=O)Nc3cc4cnn(C)c4cc3N3CCCCCC3)co2)ccn1` [Example 72, N-(6-(azepan-1-yl)-1-methyl-1H-indazol-5-yl)-2-(2-methylpyridin-4-yl)oxazole-4-carboxamide], the IC50 is under 50 nM. As to `Cc1cnccc1-c1nc(C(=O)Nc2cc3cn(C)nc3cc2N2CCCCC2)co1` [Example 22, N-(2-methyl-6-(piperidin-1-yl)-2H-indazol-5-yl)-2-(3-methylpyridin-4-yl)oxazole-4-carboxamide], the IC50 was under 50 nM.

For `Cc1cc(-c2nc(C(=O)Nc3cc4cn(C)nc4cc3N3CCC(F)CC3)co2)ccn1` [Example 91, N-(6-(4-fluoropiperidin-1-yl)-2-methyl-2H-indazol-5-yl)-2-(2-methylpyridin-4-yl)oxazole-4-carboxamide hydrochloride], the IC50 was under 50 nM. Consider `Cn1cc2cc(NC(=O)c3coc(-c4ccnc(N)c4)n3)c(N3CCCC(F)C3)cc2n1` (stereo not shown) [Example 104, 2-(2-aminopyridin-4-yl)-N-(6-(3-fluoropiperidin-1-yl)-2-methyl-2H-indazol-5-yl)oxazole-4-carboxamide hydrochloride], for which the IC50 is under 50 nM. Consider `Cc1cc(-c2nc(C(=O)Nc3cc4c(C)nn(C)c4cc3N3CCC(CO)CC3)co2)ccn1` [Example 111, N-(6-(4-(hydroxymethyl)piperidin-1-yl)-1,3-dimethyl-1H-indazol-5-yl)-2-(2-methylpyridin-4-yl)oxazole-4-carboxamide], for which the IC50 is under 50 nM. In the case of `Cc1cc(-c2nc(C(=O)Nc3cc4c(C)n(C)nc4cc3N3CCC(O)CC3)co2)ccn1` [Example 83, N-(6-(4-hydroxypiperidin-1-yl)-2,3-dimethyl-2H-indazol-5-yl)-2-(2-methylpyridin-4-yl)oxazole-4-carboxamide], the IC50 is under 50 nM.

Consider `Cn1ncc2cc(NC(=O)c3cccc(N4CC[C@H](O)C4)n3)c(C3CC3)cc21` [Example 37, (S)—N-(6-cyclopropyl-1-methyl-1H-indazol-5-yl)-6-(3-hydroxypyrrolidin-1-yl)picolinamide], for which the IC50 was over 100 nM.

Regarding `Cc1cc(-c2nc(C(=O)Nc3cc4cn(C)nc4cc3N3CCCC(CO)C3)co2)ccn1` (stereo not shown) [Example 82, N-(6-(3-(hydroxymethyl)piperidin-1-yl)-2-methyl-2H-indazol-5-yl)-2-(2-methylpyridin-4-yl)oxazole-4-carboxamide], the IC50 was under 50 nM. With `Cc1cc(-c2nc(C(=O)Nc3cc4cn(C)nc4cc3N[C@H]3CC[C@H](O)CC3)co2)ccn1` [Example 88, N-(6-(((1R,4R)-4-hydroxycyclohexyl)amino)-2-methyl-2H-indazol-5-yl)-2-(2-methylpyridin-4-yl)oxazole-4-carboxamide] the figure was under 50 nM; with `Cc1cc(-c2nc(C(=O)Nc3cc4cn(C)nc4cc3N3CCC(N)CC3)co2)ccn1` [Example 109, N-(6-(4-aminopiperidin-1-yl)-2-methyl-2H-indazol-5-yl)-2-(2-methylpyridin-4-yl)oxazole-4-carboxamide hydrochloride], under 50 nM; with `Cc1cc(-c2nc(C(=O)Nc3cc4cn(C)nc4cc3N3CC[C@@H](O)C3)co2)ccn1` [Example 65, (R)—N-(6-(3-hydroxypyrrolidin-1-yl)-2-methyl-2H-indazol-5-yl)-2-(2-methylpyridin-4-yl)oxazole-4-carboxamide], under 50 nM. On to `Cc1ccc(C(=O)Nc2cc3cn(C)nc3cc2N2CCCCC2)nc1-c1ccc(N)nc1` [Example 29, 6′-amino-3-methyl-N-(2-methyl-6-(piperidin-1-yl)-2H-indazol-5-yl)-[2,3′-bipyridine]-6-carboxamide hydrochloride], for which the IC50 is under 50 nM. Regarding `Cc1cnccc1-c1nc(C(=O)Nc2cc3cn(C4CCCC4)nc3cc2C2CC2)co1` [Example 27, N-(2-cyclopentyl-6-cyclopropyl-2H-indazol-5-yl)-2-(3-methylpyridin-4-yl)oxazole-4-carboxamide], the IC50 is under 50 nM. With `CCOP(=O)(OCC)OCC1CCN(c2cc3nn(C)cc3cc2NC(=O)c2coc(-c3ccnc(C)c3)n2)CC1` [Example 129, Diethyl ((1-(2-methyl-5-(2-(2-methylpyridin-4-yl)oxazole-4-carboxamido)-2H-indazol-6-yl)piperidin-4-yl)methyl) phosphate] the figure was under 50 nM; with `Cn1cc2cc(NC(=O)c3coc(N4CC[C@H](O)C4)n3)c(N3CCCCC3)cc2n1` [Example 52, (S)-2-(3-hydroxypyrrolidin-1-yl)-N-(2-methyl-6-(piperidin-1-yl)-2H-indazol-5-yl)oxazole-4-carboxamide], under 50 nM; with `COCCn1nc(C)c2cc(NC(=O)c3coc(-c4ccnc(C)c4)n3)c(N3CCC(CO)CC3)cc21` [Example 110, N-(6-(4-(hydroxymethyl)piperidin-1-yl)-1-(2-methoxyethyl)-3-methyl-1H-indazol-5-yl)-2-(2-methylpyridin-4-yl)oxazole-4-carboxamide], under 50 nM. As for `COc1cc(-c2nc(C(=O)Nc3cc4cn(C)nc4cc3N3CCC(O)CC3)co2)ccn1` [Example 107, N-(6-(4-hydroxypiperidin-1-yl)-2-methyl-2H-indazol-5-yl)-2-(2-methoxypyridin-4-yl)oxazole-4-carboxamide hydrochloride], the IC50 is under 50 nM. On to `C[C@H](O)Cn1cc(-c2cccc(C(=O)Nc3cc4cnn(C)c4cc3C3CC3)n2)cn1` [Example 46, (S)—N-(6-cyclopropyl-1-methyl-1H-indazol-5-yl)-6-(1-(2-hydroxypropyl)-1H-pyrazol-4-yl)picolinamide], for which the IC50 lay within 50 to 100 nM.

Turning to `Cc1cc(-c2nc(C(=O)Nc3cc4cnn(C)c4cc3N3CCC3)co2)ccn1` [Example 59, N-(6-(azetidin-1-yl)-1-methyl-1H-indazol-5-yl)-2-(2-methylpyridin-4-yl)oxazole-4-carboxamide], the half-inhibitory concentration (IC50) was over 100 nM. `Cn1cc2cc(NC(=O)c3coc(-c4ccnc(NS(C)(=O)=O)c4)n3)c(N3CCC(O)CC3)cc2n1` [Example 123, N-(6-(4-hydroxypiperidin-1-yl)-2-methyl-2H-indazol-5-yl)-2-(2-(methylsulfonamido)pyridin-4-yl) oxazole-4-carboxamide]: the IC50 is under 50 nM.

With `C[C@H](O)Cn1cc(-c2cccc(C(=O)Nc3cc4cn(C)nc4cc3C3CC3)n2)cn1` [Example 47, (S)—N-(6-cyclopropyl-2-methyl-2H-indazol-5-yl)-6-(1-(2-hydroxypropyl)-1H-pyrazol-4-yl)picolinamide], the 50% inhibitory concentration (IC50) is under 50 nM.
